The values below come from patent US8293753B2, “Substituted 2-carboxamide cycloamino ureas” (Novartis AG, priority 2009, dated 2012).

Assay type in all cases: biochemical
The target in assay [1] is T1, PI3Kδ (Homo sapiens, UniProt O00329).
T1 construct: p85iSH2(461-568)-GGGGGG-p110δ(2-1044)-His; His (C); made in house; host or cells: baculovirus / Tn5 insect cells
Description: PI3K KinaseGlo assay, PI3Kdelta. Conditions: for IC50: KinaseGlo, 1 μM ATP, 10 nM enzyme, 30 mins; for PI3Kdelta (selectivity): selectivity factor: PI3Kdelta IC50 divided by PI3Kalpha IC50. On the technique in general: Kinase-Glo reads ATP consumption through a luciferase reaction.

The target in assay [2] is T2, PI3Kα (Homo sapiens, UniProt P42336).
T2 construct: His (C); made in house; host or cells: baculovirus / Tn5 insect cells
T2 sequence (P42336 with tags, fused parts or gaps): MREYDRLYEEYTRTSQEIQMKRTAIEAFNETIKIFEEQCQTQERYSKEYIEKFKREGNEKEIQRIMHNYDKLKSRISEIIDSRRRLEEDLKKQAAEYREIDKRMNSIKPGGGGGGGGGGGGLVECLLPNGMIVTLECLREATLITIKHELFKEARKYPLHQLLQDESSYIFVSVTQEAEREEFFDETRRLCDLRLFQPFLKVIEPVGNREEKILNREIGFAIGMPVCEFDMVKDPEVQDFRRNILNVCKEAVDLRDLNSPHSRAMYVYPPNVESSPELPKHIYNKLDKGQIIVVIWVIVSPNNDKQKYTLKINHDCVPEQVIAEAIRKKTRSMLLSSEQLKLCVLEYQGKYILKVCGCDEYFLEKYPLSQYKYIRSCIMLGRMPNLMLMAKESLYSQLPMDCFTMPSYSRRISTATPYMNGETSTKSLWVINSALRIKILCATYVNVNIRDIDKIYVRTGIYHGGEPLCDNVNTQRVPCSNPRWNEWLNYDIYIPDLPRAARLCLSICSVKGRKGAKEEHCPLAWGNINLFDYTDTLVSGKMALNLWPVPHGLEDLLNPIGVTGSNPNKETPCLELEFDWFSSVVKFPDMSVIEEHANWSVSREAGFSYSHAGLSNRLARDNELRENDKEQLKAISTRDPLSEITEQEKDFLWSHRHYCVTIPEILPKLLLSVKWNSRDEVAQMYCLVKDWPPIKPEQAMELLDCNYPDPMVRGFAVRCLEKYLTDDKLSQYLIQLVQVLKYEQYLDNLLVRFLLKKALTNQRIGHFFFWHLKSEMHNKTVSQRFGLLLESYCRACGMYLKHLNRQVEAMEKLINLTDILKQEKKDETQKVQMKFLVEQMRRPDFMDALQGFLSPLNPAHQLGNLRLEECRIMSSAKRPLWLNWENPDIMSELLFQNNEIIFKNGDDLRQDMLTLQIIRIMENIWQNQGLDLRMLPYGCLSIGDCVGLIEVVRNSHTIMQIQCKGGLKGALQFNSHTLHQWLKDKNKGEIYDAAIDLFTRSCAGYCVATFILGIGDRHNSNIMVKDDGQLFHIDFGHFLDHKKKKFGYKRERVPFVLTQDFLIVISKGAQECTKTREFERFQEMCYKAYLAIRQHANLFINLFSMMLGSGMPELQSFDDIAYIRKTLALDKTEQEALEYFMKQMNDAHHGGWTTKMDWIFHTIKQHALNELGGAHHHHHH
Description: PI3K KinaseGlo assay, PI3Kalpha. The note with it: 1 μM ATP, 10 nM enzyme, 30 mins.

Assay [3] deals with T3, PI3Kβ (Homo sapiens, UniProt P42338).
T3 construct: His (C); made in house; host or cells: baculovirus / Tn5 insect cells
T3 sequence (P42338 with tags, fused parts or gaps): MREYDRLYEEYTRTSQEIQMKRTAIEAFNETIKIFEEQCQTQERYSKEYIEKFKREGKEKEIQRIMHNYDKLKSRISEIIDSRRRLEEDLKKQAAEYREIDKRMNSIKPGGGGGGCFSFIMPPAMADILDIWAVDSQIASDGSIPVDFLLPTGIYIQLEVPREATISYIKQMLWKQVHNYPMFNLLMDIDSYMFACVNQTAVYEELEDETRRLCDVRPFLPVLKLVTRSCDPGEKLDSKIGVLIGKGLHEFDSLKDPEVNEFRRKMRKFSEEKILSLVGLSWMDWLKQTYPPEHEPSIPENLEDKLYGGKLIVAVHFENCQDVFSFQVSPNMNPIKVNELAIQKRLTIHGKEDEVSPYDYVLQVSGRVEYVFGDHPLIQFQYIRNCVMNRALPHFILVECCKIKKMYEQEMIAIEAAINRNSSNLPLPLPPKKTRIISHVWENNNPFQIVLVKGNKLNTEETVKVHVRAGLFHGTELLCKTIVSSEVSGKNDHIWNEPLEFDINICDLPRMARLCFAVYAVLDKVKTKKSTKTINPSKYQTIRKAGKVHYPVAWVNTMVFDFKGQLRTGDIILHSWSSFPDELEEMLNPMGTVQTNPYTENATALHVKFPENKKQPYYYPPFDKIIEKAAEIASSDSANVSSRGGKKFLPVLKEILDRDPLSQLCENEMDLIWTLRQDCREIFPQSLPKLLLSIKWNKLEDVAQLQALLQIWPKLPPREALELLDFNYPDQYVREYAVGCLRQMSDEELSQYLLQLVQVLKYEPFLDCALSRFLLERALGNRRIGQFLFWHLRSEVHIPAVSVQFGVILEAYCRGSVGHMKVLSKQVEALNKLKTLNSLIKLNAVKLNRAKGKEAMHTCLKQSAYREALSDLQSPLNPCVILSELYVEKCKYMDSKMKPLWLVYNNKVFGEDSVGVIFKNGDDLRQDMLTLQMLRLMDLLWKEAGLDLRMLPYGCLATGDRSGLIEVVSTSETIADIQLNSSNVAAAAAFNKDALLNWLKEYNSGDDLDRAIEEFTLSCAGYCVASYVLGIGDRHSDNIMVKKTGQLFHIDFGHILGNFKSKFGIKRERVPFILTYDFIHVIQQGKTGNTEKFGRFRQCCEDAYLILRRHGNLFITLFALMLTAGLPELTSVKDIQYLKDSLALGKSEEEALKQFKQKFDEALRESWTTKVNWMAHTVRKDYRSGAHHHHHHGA
Description: PI3K KinaseGlo assay, PI3Kbeta. Conditions: for IC50: KinaseGlo, 1 μM ATP, 25 nM enzyme, 30 mins; for PI3Kbeta (selectivity): selectivity factor: PI3Kbeta IC50 divided by PI3Kalpha IC50.

Assay [4] addresses T4, PI3Kγ (Homo sapiens, UniProt P48736, Q459R).
T4 construct: His (C); made in house; host or cells: Tn5 insect cells; construct obtained from Roger Williams lab (MRC LMB)
The assay is described as follows: PI3K KinaseGlo assay, PI3Kgamma. Conditions: for IC50: KinaseGlo, 1 μM ATP, 150 nM enzyme, 90 mins; for PI3Kgamma (selectivity): selectivity factor: PI3Kgamma IC50 divided by PI3Kalpha IC50. As for the experimental part: PI3K KinaseGlo assay: […] of compound dilutions were dispensed onto black 384-well low volume Non Binding Styrene (NBS) plates (Costar Cat. No. NBS#3676). L-a-phosphatidylinositol (PI), provided as 10 mg/ml solution in methanol, was transferred into a glass tube and dried under nitrogen beam. It was then resuspended in 3% OctylGlucoside (OG) by vortexing and stored at 4° C. The KinaseGlo Luminescent Kinase Assay (Promega, Madison/WI, USA) is a homogeneous HTS method of measuring kinase activity by quantifying the amount of ATP remaining in solution following a kinase reaction.
5 μL of a mix of PI/OG with the PI3K subtype were added (Table 1). Kinase reactions were started by addition of 5 μl of ATP-mix containing in a final volume 10 μL 10 mM TRIS-HCl pH 7.5, 3 mM MgCl2, 50 mM NaCl, 0.05% CHAPS, 1 mM DTT and 1 μM ATP, and occurred at room temperature. Reactions were stopped with 10 μl of KinaseGlo and plates were read 10 mins later in a Synergy2 reader using an integration time of 0.1 seconds per well. […] The standard was used as a reference compound and included in all assay plates in the form of 16 dilution points in duplicate.
The PI3Kα, PI3Kβ and PI3Kδ constructs are fusion of p85α iSH2 domain and the respective p110 isoforms. The p85α fragment and p110 isoform genes were generated by PCR from first strand cDNA generated by RT-PCR from commercial RNA from placenta, testis and brain as described below. The PI3Kγ construct was obtained from Roger Williams lab, MRC Laboratory of Molecular Biology, Cambridge, UK (November, 2003) and is described (Pacold, Michael E.; Suire, Sabine; Perisic, Olga; Lara-Gonzalez, Samuel; Davis, Colin T.; Walker, Edward H.; Hawkins, Phillip T.; Stephens, Len; Eccleston, John F.; Williams, Roger L. Crystal structure and functional analysis of Ras binding to its effector phosphoinositide 3-kinase gamma. Cell (2000), 103(6), 931-943).
Construct obtained from Roger Williams lab, MRC Laboratory of Molecular Biology, Cambridge, UK (November, 2003). Description of the construct in (Pacold, Michael E.; Suire, Sabine; Perisic, Olga; Lara-Gonzalez, Samuel; Davis, Colin T.; Walker, Edward H.; Hawkins, Phillip T.; Stephens, Len; Eccleston, John F.; Williams, Roger L. Crystal structure and functional analysis of Ras binding to its effector phosphoinositide 3-kinase gamma. Cell (2000), 103(6), 931-943). Constructs lacking the N-terminal 144 aa.

T1 sequence (O00329 with tags, fused parts or gaps): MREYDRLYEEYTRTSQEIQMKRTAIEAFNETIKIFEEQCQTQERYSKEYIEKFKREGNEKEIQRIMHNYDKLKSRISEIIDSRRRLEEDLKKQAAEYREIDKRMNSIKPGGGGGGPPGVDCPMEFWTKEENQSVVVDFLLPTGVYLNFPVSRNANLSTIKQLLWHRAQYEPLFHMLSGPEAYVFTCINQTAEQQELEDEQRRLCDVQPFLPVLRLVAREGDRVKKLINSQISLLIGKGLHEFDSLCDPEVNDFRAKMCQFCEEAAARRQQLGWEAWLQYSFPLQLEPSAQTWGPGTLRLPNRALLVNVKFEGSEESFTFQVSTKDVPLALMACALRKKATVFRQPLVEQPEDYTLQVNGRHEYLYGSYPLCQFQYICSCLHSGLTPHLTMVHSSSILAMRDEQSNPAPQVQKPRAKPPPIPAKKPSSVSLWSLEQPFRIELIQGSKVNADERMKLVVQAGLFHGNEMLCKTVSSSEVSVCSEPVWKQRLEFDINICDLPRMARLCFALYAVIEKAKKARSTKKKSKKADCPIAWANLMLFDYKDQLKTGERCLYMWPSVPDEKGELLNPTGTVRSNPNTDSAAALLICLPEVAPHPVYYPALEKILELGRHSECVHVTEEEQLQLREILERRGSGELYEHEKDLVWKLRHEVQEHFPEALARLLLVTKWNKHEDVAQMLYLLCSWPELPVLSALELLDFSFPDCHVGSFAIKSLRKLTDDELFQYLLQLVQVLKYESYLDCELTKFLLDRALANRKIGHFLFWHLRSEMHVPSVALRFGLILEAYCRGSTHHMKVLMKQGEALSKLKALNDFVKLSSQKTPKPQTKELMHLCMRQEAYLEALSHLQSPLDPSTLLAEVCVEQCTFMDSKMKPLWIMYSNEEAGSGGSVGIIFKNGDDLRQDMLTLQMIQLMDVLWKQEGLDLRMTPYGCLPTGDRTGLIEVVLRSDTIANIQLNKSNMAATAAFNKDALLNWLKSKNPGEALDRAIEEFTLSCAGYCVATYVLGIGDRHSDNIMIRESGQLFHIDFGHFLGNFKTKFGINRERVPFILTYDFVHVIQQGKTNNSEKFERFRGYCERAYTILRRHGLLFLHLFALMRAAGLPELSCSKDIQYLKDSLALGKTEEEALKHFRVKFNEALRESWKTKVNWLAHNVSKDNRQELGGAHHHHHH
T4 sequence (P48736 with tags, fused parts or gaps Q459R): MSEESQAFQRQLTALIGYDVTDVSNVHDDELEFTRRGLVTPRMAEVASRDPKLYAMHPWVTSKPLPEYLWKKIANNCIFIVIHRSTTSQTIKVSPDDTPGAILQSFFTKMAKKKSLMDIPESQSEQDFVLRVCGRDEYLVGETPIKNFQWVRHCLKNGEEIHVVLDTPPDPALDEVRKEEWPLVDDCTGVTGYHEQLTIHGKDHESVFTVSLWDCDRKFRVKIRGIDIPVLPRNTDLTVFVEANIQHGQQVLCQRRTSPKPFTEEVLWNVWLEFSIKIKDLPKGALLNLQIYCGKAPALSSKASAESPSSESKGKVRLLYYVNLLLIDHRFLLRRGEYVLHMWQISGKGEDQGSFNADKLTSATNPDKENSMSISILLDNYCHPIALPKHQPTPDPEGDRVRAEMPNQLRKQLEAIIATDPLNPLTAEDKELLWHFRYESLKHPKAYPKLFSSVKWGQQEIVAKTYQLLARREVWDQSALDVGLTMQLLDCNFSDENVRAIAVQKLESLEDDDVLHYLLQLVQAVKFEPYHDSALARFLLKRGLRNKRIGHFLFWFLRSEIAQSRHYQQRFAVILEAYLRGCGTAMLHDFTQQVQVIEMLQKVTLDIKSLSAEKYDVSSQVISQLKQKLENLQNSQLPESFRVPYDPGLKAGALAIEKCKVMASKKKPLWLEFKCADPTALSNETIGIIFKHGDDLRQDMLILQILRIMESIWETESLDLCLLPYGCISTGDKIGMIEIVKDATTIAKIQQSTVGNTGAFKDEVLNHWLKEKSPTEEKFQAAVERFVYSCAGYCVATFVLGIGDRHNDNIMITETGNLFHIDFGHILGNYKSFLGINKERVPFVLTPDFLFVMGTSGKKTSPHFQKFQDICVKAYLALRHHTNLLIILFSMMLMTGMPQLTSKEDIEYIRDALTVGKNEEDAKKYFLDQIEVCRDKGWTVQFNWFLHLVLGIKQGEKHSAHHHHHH

Turning to `CC(=O)NC[C@@H]1CCN(C(=O)Nc2nc(C)c(-c3ccnc(C4(C)CC4)c3)s2)[C@@H]1C(N)=O` [Example 5, (2S,3S)-3-(Acetylamino-methyl)pyrrolidine-1,2-dicarboxylic acid 2-amide 1-({4-methyl-5-[2-(1-methyl-cyclopropyl)-pyridin-4-yl]-thiazol-2-yl}-amide)], in assay [1], half-maximal inhibition (IC50) was put at 240 nM and the “PI3Kdelta (selectivity)” value is on record as “(13)”. Further, in assay [2], 18 nM corresponded to half-maximal inhibition (IC50). In addition, in assay [3], the IC50 (as a rule, the concentration at which inhibition is half-maximal) was found to be 3220 nM and the “PI3Kbeta (selectivity)” value is listed as “(178)”.

On to `CC(=O)NC[C@@H]1CCN(C(=O)Nc2nc(C)c(-c3ccnc(C(C)(C)C(F)(F)F)c3)s2)[C@@H]1C(N)=O` [Example 6, (2S,3S)-3-(Acetylamino-methyl)-pyrrolidine-1,2-dicarboxylic acid 2-amide 1-({4-methyl-5-[2-(2,2,2-trifluoro-1,1-dimethyl-ethyl)-pyridin-4-yl]-thiazol-2-yl}-amide)], for which, in assay [1], the IC50 is 684 nM and the “PI3Kdelta (selectivity)” value is on record as “(52)”. The compound also yielded an IC50 in assay [2] of 13 nM. In assay [3], it took 990 nM to reach half-maximal inhibition (IC50) and the “PI3Kbeta (selectivity)” value is recorded as “(76)”.

For the compound `COC[C@@H]1CCN(C(=O)Nc2nc(C)c(-c3ccnc(C(C)(C)C(F)(F)F)c3)s2)[C@@H]1C(N)=O` [Example 14, (2S,3R)-3-Methoxymethyl-pyrrolidine-1,2-dicarboxylic acid 2-amide 1-({4-methyl-5-[2-(2,2,2-trifluoro-1,1-dimethyl-ethyl)-pyridin-4-yl]-thiazol-2-yl}-amide)], in assay [1], the IC50 is 110 nM and the “PI3Kdelta (selectivity)” value is recorded as “(9)”. This compound also gave an IC50 in assay [2] of 12 nM. Also, in assay [3], inhibition was half-maximal at 1460 nM (IC50) and the “PI3Kbeta (selectivity)” value is “(122)”.

As to `Cc1nc(NC(=O)N2CC[C@@H](CN(C)C)[C@H]2C(N)=O)sc1-c1ccnc(C(C)(C)C(F)(F)F)c1` [Example 15, (2S,3S)-3-Dimethylaminomethyl-pyrrolidine-1,2-dicarboxylic acid 2-amide 1-({4-methyl-5-[2-(2,2,2-trifluoro-1,1-dimethyl-ethyl)-pyridin-4-yl]-thiazol-2-yl}-amide)], in assay [1], the IC50 was 93 nM and the “PI3Kdelta (selectivity)” value was “(5)”. Half-maximal inhibition in assay [2] (IC50) was put at 17 nM. In addition, in assay [3], the IC50 was 3260 nM and the “PI3Kbeta (selectivity)” value is “(192)”.

For `[2H]C([2H])([2H])C(c1nccc(-c2sc(NC(=O)N3CC[C@@H](C)[C@H]3C(N)=O)nc2C)n1)(C([2H])([2H])[2H])C([2H])([2H])[2H]` [Example 12, (2S,3R)-3-Methylpyrrolidine-1,2-dicarboxylic acid 2-amide 1-{[5-(2-d9-tert-butyl-pyrimidin-4-yl)-4-methyl-thiazol-2-yl]-amide}], in assay [4], the IC50 was determined as 76 nM and the “PI3Kgamma (selectivity)” value is reported as “(16)”. Besides, in assay [1], the IC50 was found to be 33 nM and the “PI3Kdelta (selectivity)” value was “(7)”. This compound also returned an IC50 in assay [2] of 4.5 nM. In addition, in assay [3], the IC50 was determined as 1590 nM and the “PI3Kbeta (selectivity)” value was “(353)”.

Regarding `[2H]C([2H])([2H])C([2H])([2H])N(c1cncc(-c2sc(NC(=O)N3CC[C@@H](C)[C@H]3C(N)=O)nc2C)n1)C([2H])([2H])C([2H])([2H])[2H]` [Example 13, (2S,3R)-3-Methyl-pyrrolidine-1,2-dicarboxylic acid 2-amide 1-{[5-(6-d10-diethylamino-pyrazin-2-yl)-4-methyl-thiazol-2-yl]-amide}], in assay [4], the IC50 amounted to 418 nM and the “PI3Kgamma (selectivity)” value was “(104)”. Also, in assay [1], the IC50 was 49 nM and the “PI3Kdelta (selectivity)” value is listed as “(12)”. This compound returned a 50% inhibitory concentration (IC50) in assay [2] of 4 nM. Further, in assay [3], the IC50 was 938 nM and the “PI3Kbeta (selectivity)” value was “(234)”.

Turning to `Cc1nc(NC(=O)N2CC[C@@H](C)[C@H]2C(N)=O)sc1-c1ccnc(C(C)(C)C(F)(F)F)c1` [Example 2, (2S,3R)-3-Methyl-pyrrolidine-1,2-dicarboxylic acid 2-amide 1-({4-methyl-5-[2-(2,2,2-trifluoro-1,1-dimethyl-ethyl)-pyridin-4-yl]-thiazol-2-yl}-amide)], in assay [4], the IC50 turned out to be 104 nM and the “PI3Kgamma (selectivity)” value was “(3)”. In addition, in assay [1], the IC50 worked out at 59 nM and the “PI3Kdelta (selectivity)” value is reported as “(2)”. In assay [2], this compound registered an IC50 of 27 nM. For the same compound, in assay [3], 1200 nM corresponded to half-maximal inhibition (IC50) and the “PI3Kbeta (selectivity)” value was “(44)”.

For the compound `Cc1nc(NC(=O)N2CCC(C)(C)C2C(N)=O)sc1-c1ccnc(C2(C)CC2)c1` (racemic) [Example 3, (rac)-3,3-Dimethyl-pyrrolidine-1,2-dicarboxylic acid 2-amide 1-({4-methyl-5-[2-(1-methyl-cyclopropyl)-pyridin-4-yl]-thiazol-2-yl}-amide)], the IC50 in assay [4] is 1080 nM; in assay [1], 800 nM; in assay [2], 53 nM; in assay [3], > 9100 nM. Further, the “PI3Kgamma (selectivity)” value in assay [4] is “(20)”. In assay [1], the “PI3Kdelta (selectivity)” value was “(15)”. Also, the “PI3Kbeta (selectivity)” value in assay [3] is “(>171)”.

For the compound `Cc1nc(NC(=O)N2CC[C@@H](CN3CCOCC3)[C@H]2C(N)=O)sc1-c1ccnc(C(C)(C)C(F)(F)F)c1` [Example 8, (2S,3S)-3-Morpholin-4-ylmethyl-pyrrolidine-1,2-dicarboxylic acid 2-amide 1-({4-methyl-5-[2-(2,2,2-trifluoro-1,1-dimethyl-ethyl)-pyridin-4-yl]-thiazol-2-yl}-amide)], in assay [1], the IC50 was 49 nM and the “PI3Kdelta (selectivity)” value was “(8)”. In addition, the 50% inhibitory concentration (IC50) in assay [2] is 6 nM. Moreover, in assay [3], the midpoint of inhibition, the IC50, lay at 2280 nM and the “PI3Kbeta (selectivity)” value is “(380)”.

Regarding `Cc1nc(NC(=O)N2CC[C@@H](C)[C@H]2C(N)=O)sc1-c1ccnc(C(C)(C)F)n1` [Example 9, (2S,3R)-3-Methyl-pyrrolidine-1,2-dicarboxylic acid 2-amide 1-({5-[2-(1-fluoro-1-methyl-ethyl)-pyrimidin-4-yl]-4-methyl-thiazol-2-yl}-amide)], in assay [4], the IC50 was determined as 200 nM and the “PI3Kgamma (selectivity)” value was “(20)”. For the same compound, in assay [1], the IC50 was determined as 586 nM and the “PI3Kdelta (selectivity)” value is listed as “(58)”. Moreover, the IC50 in assay [2] worked out at 10 nM. Also, in assay [3], the IC50 is > 9100 nM and the “PI3Kbeta (selectivity)” value is listed as “(910)”.

With `Cc1nc(NC(=O)N2CC[C@@H](C)[C@H]2C(N)=O)sc1-c1ccnc(C(C)(C)C)c1` [Example 16, (2S,3R)-3-Methyl-pyrrolidine-1,2-dicarboxylic acid 2-amide 1-{[5-(2-tert-butyl-pyridin-4-yl)-4-methyl-thiazol-2-yl]-amide}], the IC50 amounted to 113 nM in assay [1], 9 nM in assay [2] and 2170 nM in assay [3]. Besides, in assay [1], the “PI3Kdelta (selectivity)” value is reported as “(13)”. Also, in assay [3], the “PI3Kbeta (selectivity)” value is recorded as “(241)”.

With `Cc1nc(NC(=O)N2CC[C@@H](CN3CCOCC3)[C@H]2C(N)=O)sc1-c1ccnc(C2(C)CC2)c1` [Example 7, (2S,3S)-3-Morpholin-4-ylmethyl-pyrrolidine-1,2-dicarboxylic acid 2-amide 1-({4-methyl-5-[2-(1-methyl-cyclopropyl)-pyridin-4-yl]-thiazol-2-yl}-amide)], in assay [1], the IC50 came out at 190 nM and the “PI3Kdelta (selectivity)” value is “(5)”. The same compound came in with an IC50 in assay [2] of 38 nM. Also, in assay [3], half-maximal inhibition (IC50) required 5150 nM and the “PI3Kbeta (selectivity)” value is “(136)”.
